Reference: patent publication US5576188A, “Immunological detection of metolachlor” (Ciba-Geigy Corporation, priority 1990, dated 1996)

Experiments:
[1] = molecular target: MAb 4082-25-4; assay: Indirect competitive ELISA (assay A), inhibition of MAb 4082-25-4 binding / cross-reactivity; parameters: species or system BALB/c mouse; conditions: for I50 (inhibitor concentration for 50% inhibition in the competitive ELISA): MAb 4082-25-4; for Cross-reactivity (metolachlor concentration for 50% inhibition / concentration of metolachlor analogue for 50% inhibition × 100): MAb 4082-25-4, relative to metolachlor
Source text: The percentage cross-reactivity is to be defined within the scope of this invention by the following relation:
(Metolachlor concentration for 50% inhibition/concentration of the metolachlor analogues for 50% inhibition)×100.
A 50% inhibition can be determined, for example, with the aid of a competitive ELISA assay (compare Example 8). This then corresponds, for example, to that antigen concentration which leads to 50% inhibition of antibody binding to the carrier-bound antigen.
8.1: Indirect ELISA (assay A)
Metolachlor is detected by means of a two-stage competitive ELISA test using an enzyme-labelled second antibody.
BSA-conjugated hapten in a 50 mM sodium carbonate buffer (pH 9.6) (200 ng of BSA-conjugated hapten/100 μl of sodium carbonate buffer) is initially adsorbed onto microtitre plates (for example Dynatech, type M 129A) and incubated at a temperature of 4° C. overnight. It has emerged that the sensitivity of the assay can be increased almost 5-fold by reducing the conjugate[BSA/hapten] concentration from 200 ng/100 μl of sodium carbonate buffer to 50 ng/100 μl of sodium carbonate buffer because the coating is improved.
The plates are then washed 5× with PBS buffer which is supplemented with 0.1% (v/v) polysorbate 20 (Tween 20) (PBS-Tween).
The remaining free binding sites on the solid support material are then blocked by adding BSA in the form of a 1% solution. After incubation at 22° C. for two hours the plates are again washed with PBS-Tween (0.1%).
50 μl of the previously purified monoclonal antibodies (0.2 μg/ml) or else of the supernatant of the cell clones (in a dilution of 1:15) are incubated a) with 950 μl of a standard solution which contains an increasing content of metolachlor or metolachlor analogue, b) with metolachlor-containing water samples or c) metolachlor-containing soil extracts. (PBS-Tween is used for all dilutions).
After an incubation time of 1 hour at room temperature (22° C.), 200 μl of the antigen/antibody mixture are added to each well of the microtitre plate, and the entire mixture is incubated for a further hour. The wells are then washed 5× with PBS-Tween (0.1%) and charged with 100 μl/well of goat anti-mouse IgG antibody which is conjugated to alkaline phosphatase (dilution 1:1500) and incubated for a period of 1.5 hours.
After renewed washing, 150 μl/well of the substrate p-nitrophenyl phosphate which is dissolved in 1 mg/ml diethanolamine buffer (1 mM, pH 9.8, supplemented with 0.5 mM MgCl2 ×6H2 O) are added to the wells.
After an incubation time of 2 hours at a temperature of 22° C. it is possible to observe a colour change which is proportional to the amount of antibody which has reacted with the antigen bound to the solid phase. The intensity of the colour reaction which has occurred is determined at a wavelength of 405 nm. The dilutions of the individual samples are chosen so that absorptions in a range between 0.3 and 0.5 are obtained without addition of an inhibitor (Bo). Values of R≤0.005 are found for the controls (without antibody and with undetectable amounts of antigen). All the samples are determined in triplicate.
(§1) For the determination of the amount of metolachlor contained in a sample, initially a calibration plot is constructed (FIG. 1), where B/Bo×100is plotted against the concentration of inhibitor. (Bo represents the absorbance measured without addition of a metolachlor inhibitor to the antibody, and B means the absorbance measured with various concentrations of metolachlor inhibitor). […] The I50 value is calculated using an ENZFITTER (Leatherbarrow, Elsevier-Biosoft) plot calculation program specifically adapted to the present circumstances and based on a logistic plot embracing 4 parameters (Raab GM, 1983). The quantitative determination of metolachlor in samples of soil or water within the scope of the ELISA is also carried out using the ENZFITTER program, with the fitting of the plot being based on standards included on each microtitre plate. […]

[2] = test system: MAb 4082-25-4; assay: Direct competitive ELISA (assay B); type: binding, BALB/c mouse
Procedure: 8.2: Direct ELISA (assay B)
Microtitre plates [Dynatech M 129A] are coated with monoclonal antibodies [for example MAb 4082-25-4; 75 ng/100 μl of 50 mM sodium carbonate buffer, pH 9.6] and incubated at a temperature of 4° C. overnight. The plates are then washed 5 times with 0.1% (v/v) PBS-Tween and subsequently incubated with PBS supplemented with 1% (w/v) BSA for 2 hours in order to block the binding sites which are still free. After renewed washing, 150 μl of a standard solution are added to each of the wells of the microtitre plates which contain increasing amounts of metolachlor in 0.1% (v/v) PBS-Tween. This is followed by incubation at a temperature of 22° C. for 1 hour. […] After incubation at 22° C. in the dark for 2 hours, the absorption of 405 nm is determined.
as §1, with “1983).” for “1983). The quantitative determination of metolachlor in samples of soil or water within the scope of the ELISA is also carried out using the ENZFITTER program, with the fitting of the plot being based on standards included on each microtitre plate.”

SMILES	I50 (inhibitor concentration for 50% inhibition in the competitive ELISA) [1] [ng/mL]	Cross-reactivity (metolachlor concentration for 50% inhibition / concentration of metolachlor analogue for 50% inhibition × 100) [1] [%]	I50 [2] [ng/mL]
CCc1cccc(C)c1N(C(=O)CO)C(C)COC (stereo not drawn) [A]	43	1.4	
CCc1cccc(CC)c1N(COC)C(=O)CCl [Alachlor]	> 1000	< 0.1	
CCc1cccc(C)c1NC(C)COC (stereo not drawn) [B]	> 1000	< 0.1	
CCc1cccc(C)c1NC(=O)CCl [C]	> 1000	< 0.1	
COC(=O)C(C)Nc1c(C)cccc1C (stereo not drawn) [Compound I]	> 1000	< 0.1	
CCc1cccc(C)c1NC(=O)CO [D]	> 1000	< 0.1	
CCc1cccc(C)c1NC(C)CO (stereo not drawn) [E]	> 1000	< 0.1	
CCc1cccc(C)c1N(C(=O)CO)C(C)CO (stereo not drawn) [F]	> 1000	< 0.1	
COCC(=O)N(c1c(C)cccc1C)C(C)C(=O)O (stereo not drawn) [G]	> 1000	< 0.1	
Cc1cccc(C)c1N(C(=O)CO)C(C)C(=O)O (stereo not drawn) [H]	> 1000	< 0.1	
COCC(=O)Nc1c(C)cccc1C [J]	> 1000	< 0.1	
Cc1cccc(C)c1NC(C)C(=O)O (stereo not drawn) [K]	> 1000	< 0.1	
COCC(=O)N(c1c(C)cccc1C)C(C)C(=O)OC (stereo not drawn) [L]	> 1000		
COCC(=O)N(c1c(C)cccc1CO)C(C)C(=O)OC (stereo not drawn) [M]	> 1000	< 0.1	
CCc1cccc(C)c1N(C(=O)CCl)C(C)COC (stereo not drawn) [Metolachlor, 2-chloro-6'-ethyl-N-(2-methoxy-1-methyl-ethyl)acet-O-toluidide]	0.6	100	1.0
COC(=O)C(C)N(C(=O)c1ccco1)c1c(C)cccc1C (stereo not drawn) [N]	> 1000		
COC(=O)C(C)N(C(=O)c1ccco1)c1c(C)cccc1C (stereo not drawn) [furalaxyl]		< 0.1	
COCC(=O)N(c1c(C)cccc1C)C(C)C(=O)OC (stereo not drawn) [matalaxyl]		< 0.1	
